Legend:
QSOX1-a protein = QSOX1-a protein abundance by Western blotting in MDA-MB-231 cells; format: cell-based, human; settings: 10 μM
Protocol: (§1) Measuring Protein Abundance by Western Blotting. MDA-MB-231 cells were seeded in 6-well plates at ˜50% confluency and treated with vehicle (DMSO) or compound as described above but without EU treatment. After 16 h, the compound-containing growth medium was removed and replaced with fresh medium containing compound (re-dosing). After an additional 32 h incubation, total protein was harvested (48 h total treatment time). The cells were then washed twice with cold 1×DPBS, and total protein was harvested by using Mammalian Protein Extraction Reagent (M-PER, Thermo Scientific) per the manufacturer's protocol. Protein concentration was quantified by using BCA Protein Assay Kit (Pierce), and the proteins were separated by using 10% SDS-polyacrylamide gel (20 μg protein per lane). After gel electrophoresis in 1× Running Buffer (50 mM MOPS, 50 mM Tris-base, pH 7.5, 1 mM EDTA, and 0.1% (w/v) SDS) at 120 V for 1 h, the proteins were transferred to a PVDF membrane (0.45 μm, Cytiva) at 300 mA for 1 h in 1× Transfer Buffer (25 mM Bicine, 25 mM Tris-base, pH 7.5, 1:4 MeOH:H2O). The membrane was blocked with 5% (w/v) non-fat dry milk in TBST (1×TBS containing 0.1% (v/v) Tween-20) for 1 h at room temperature. The primary antibody for QSOX1 protein (Cat #10092-932, Proteintech) or SQSTM1 protein (Cat #ab 109012, Abcam) was incubated with 1:1000 dilutions at 4° C. for 16 h. The membrane was then washed by TBST four times (5 min each) and then incubated with the secondary antibody (Cat #7074S, Cell Signaling) with 1:5000 dilution at room temperature for 2 h. The membrane was washed with TBST four times (5 min each) and imaged by using a SuperSignal West Pico Chemiluminescent Substrate (Pierce) per manufacturer's protocol. The blot was stripped by washing the membrane in 1× Stripping Buffer (200 mM glycine, pH 2.2, 4 mM SDS, 1% (v/v) Tween 20) at room temperature for 30 min, followed by blocking again as described above. […] Expression levels of proteins were quantified based on band intensity by using ImageJ. […]

QSOX-1b = assay: QSOX1-b protein abundance by Western blotting in MDA-MB-231 cells; format: cell-based, human
Protocol: as §1, with “temperature.” for “temperature. The primary antibody for QSOX1 protein (Cat #10092-932, Proteintech) or SQSTM1 protein (Cat #ab 109012, Abcam) was incubated with 1:1000 dilutions at 4° C. for 16 h. The membrane was then washed by TBST four times (5 min each) and then incubated with the secondary antibody (Cat #7074S, Cell Signaling) with 1:5000 dilution at room temperature for 2 h. The membrane was washed with TBST four times (5 min each) and imaged by using a SuperSignal West Pico Chemiluminescent Substrate (Pierce) per manufacturer's protocol. The blot was stripped by washing the membrane in 1× Stripping Buffer (200 mM glycine, pH 2.2, 4 mM SDS, 1% (v/v) Tween 20) at room temperature for 30 min, followed by blocking again as described above.”

[1] = tested on: DNA and proteins in MDA-MB-231 cells; assay: Cross-linking to RNA, DNA and proteins in live cells with clickable TAMRA azide; format: cell-based, human; settings: 16 h, TAMRA imaging
Protocol: Cross-linking to RNA, DNA, and Proteins in Live Cells with Clickable TAMRA Azide. MDA-MB-231 cells were seeded in 100 mm dishes and allowed to reach ˜80% confluency. The cells were then treated with […] of compound in growth medium and incubated for 16 h. Cells were washed with 1×DPBS and irradiated with UV light for 10 min. Total RNA was harvested using a Zymo Quick-RNA Miniprep Kit per the manufacturer's protocol with DNase and proteinase treatment. Total DNA was harvested using a Zymo Quick-DNA Miniprep Kit per the manufacturer's protocol with RNase and proteinase treatment. Total protein was harvested by using Mammalian Protein Extraction Reagent (M-PER, Thermo Scientific) per the manufacturer's protocol with RNase and DNase treatment. Each sample (4 μg for RNA or DNA, 25 μg for proteins) was then incubated in a “click reaction mixture” with TAMRA azide as described in In Vitro Screening of Functionalized Compounds with Clickable TAMRA Azide. DNA and RNA samples were separated by using a 1.0% (w/v) and 1.5% (w/v) agarose gel in TBE buffer, respectively. Protein samples were loaded to 10% SDS-polyacrylamide gel. All samples were first imaged with TAMRA channel by using a Typhoon FLA 9500 variable mode imager (GE Healthcare Life Sciences). […]

[2] = tested on: base paired (BP) mutant RNA lacking the U-bulge; assay: In vitro Chem-CLIP with Cy5-labeled mutant RNA; format: binding; settings: U-bulge mutated to A/U base pair
Protocol: In Vitro Chemical-Crosslinking and Isolation by Pull-down (Chem-CLIP) with Fluorescently Labeled RNA. Cy5-labeled RNA (100 μL, 2 μM) was folded by heating at 95° C. for 2 min in 1× Folding Buffer and cooled on ice. The RNA was then mixed with F1 at the indicated concentrations. The sample was irradiated with UV light (365 nm) for 15 min and then added to 100 μL of azide-disulfide agarose beads (Click Chemistry Tools, 1238-2) pre-washed with 200 μL of 25 mM HEPES, pH 7.0. A click reaction solution was prepared by mixing 30 μL of 250 mM sodium ascorbate, 30 μL of 10 mM CuSO4, and 30 μL of 50 mM THPTA, which was added to the sample. The sample was incubated while rotating at 37° C. for 2 h, briefly centrifuged, and then the supernatant was decanted. The beads were washed six times with 1× Washing Buffer (10 mM Tris-HCl, pH 7, 4 M NaCl, 1 mM EDTA, and 0.05% (v/v) Tween-20) following by incubation with 1× Releasing Buffer (50 mM TCEP and 100 mM K2CO3) at 37° C. for 30 min. An equivalent of iodoacetamide (200 mM) was added to the sample, which was incubated at 37° C. for an additional 30 min. The sample was briefly centrifuged and supernatant containing RNA was carefully transferred to a clean tube. Cy-5 fluorescence in the supernatant was measured with a Molecular Devices SpectraMax M5 plate reader with an excitation wavelength of 640 nm and an emission wavelength of 680 nm. […]

SMILES: CCOC(=O)C1=C(Nc2ccccc2)S/C(=C\c2ccc(OCCOCCOCCOCCNC(=O)CCC(=O)N(C)[C@H]3CC[C@@H](c4ccc(Cl)c(Cl)c4)c4ccccc43)c(O)c2)C1=O [Compound F1-RIBOTAC]
- reduction of QSOX1-a protein abundance (QSOX1-a protein): ~35%
- effect on QSOX-1b levels (QSOX-1b): no effect

SMILES: C#CCCC1(CCC(=O)N(C)[C@H]2CC[C@@H](c3ccc(Cl)c(Cl)c3)c3ccccc32)N=N1 [Compound F1]
- enrichment of protein or DNA targets compared to the control probe [1]: No significant enrichment
- cross-linking / pull-down of mutant RNA [2]: ablated

— patent publication US20250346943A1, “DEGRADER COMPOUNDS OF QSOX1 mRNA” (UNIVERSITY OF FLORIDA RESEARCH FOUNDATION, INCORPORATED, priority 2022, published 2025)
